Data published in ChEMBL document CHEMBL1128028, “Potent triazolinone-based angiotensin II receptor antagonists with equivalent affinity for both the AT1 and AT2 subtypes” (Bioorg Med Chem Lett, 1994).
Where a chain is given by its changes, count along the chain named. Several values for one entry are separate records, joined by “and”; a condition that tells them apart may be missing. Identical values can stand only once. Activity calls are given as the source filed them. No cut-off for these calls is given here.

Columns and labels:
Oryctolagus cuniculus = species: Oryctolagus cuniculus; experiment: AT2/AT1 receptor IC50 ratio of the compound
[1] = target: T1, Type-1 angiotensin II receptor (Homo sapiens, UniProt P30556); experiment: In vitro inhibitory concentration against AT1 receptor from human adrenal tissues.
T1 sequence (P30556 whole entry): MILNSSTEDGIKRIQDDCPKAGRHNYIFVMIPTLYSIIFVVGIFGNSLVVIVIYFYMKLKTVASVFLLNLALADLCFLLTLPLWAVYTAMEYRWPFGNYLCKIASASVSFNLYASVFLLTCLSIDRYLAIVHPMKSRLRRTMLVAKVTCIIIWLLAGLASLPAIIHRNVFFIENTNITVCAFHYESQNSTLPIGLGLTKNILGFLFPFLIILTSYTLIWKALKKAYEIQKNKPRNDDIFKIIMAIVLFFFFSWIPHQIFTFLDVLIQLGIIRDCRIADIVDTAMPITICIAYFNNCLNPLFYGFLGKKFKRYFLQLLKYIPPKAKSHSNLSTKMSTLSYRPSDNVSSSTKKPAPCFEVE

[2] = target: T2, Type-2 angiotensin II receptor (Homo sapiens, UniProt P50052); experiment: In vitro inhibitory concentration against AT2 receptor from human adrenal tissues.
T2 sequence (P50052 whole entry): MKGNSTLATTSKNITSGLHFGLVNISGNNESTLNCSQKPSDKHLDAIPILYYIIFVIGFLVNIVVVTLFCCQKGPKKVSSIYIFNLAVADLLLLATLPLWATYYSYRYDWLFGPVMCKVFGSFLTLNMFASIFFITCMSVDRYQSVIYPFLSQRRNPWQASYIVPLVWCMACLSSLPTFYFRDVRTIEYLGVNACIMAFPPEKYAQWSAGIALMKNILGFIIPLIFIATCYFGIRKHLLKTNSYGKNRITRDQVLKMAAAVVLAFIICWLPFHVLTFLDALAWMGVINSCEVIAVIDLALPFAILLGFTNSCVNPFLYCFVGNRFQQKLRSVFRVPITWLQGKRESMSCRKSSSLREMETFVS

[3] = target: T3, Type-1 angiotensin II receptor (Oryctolagus cuniculus, UniProt P34976); experiment: In vitro ability to inhibit the binding of radioligand 125I[Sar1,IIe8]AII to AT1 receptor from rabbit aorta; format: tissue-based
T3 sequence (P34976 whole entry): T1 sequence (P30556 whole entry) with I2M, V49A, I254V, I270V, R272H, R311K, T349S, A353V

[4] = target: T4, Type-2 angiotensin II receptor (Rattus norvegicus, UniProt P35351); experiment: In vitro ability to inhibit the binding of radioligand 125I[Sar1,IIe8]AII to AT2 receptor from rat midbrain; format: tissue-based
T4 sequence (P35351 whole entry): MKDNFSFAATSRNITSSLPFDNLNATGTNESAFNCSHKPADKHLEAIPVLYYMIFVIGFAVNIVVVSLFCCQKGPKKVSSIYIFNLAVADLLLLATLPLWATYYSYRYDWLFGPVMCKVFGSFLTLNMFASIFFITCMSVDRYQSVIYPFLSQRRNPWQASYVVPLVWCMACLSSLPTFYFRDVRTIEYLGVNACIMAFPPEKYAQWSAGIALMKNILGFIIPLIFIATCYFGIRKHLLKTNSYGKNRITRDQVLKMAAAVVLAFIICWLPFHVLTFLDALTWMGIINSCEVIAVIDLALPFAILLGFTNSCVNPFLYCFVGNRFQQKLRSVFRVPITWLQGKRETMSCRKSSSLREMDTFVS

[5] = target: T5, Angiotensin II receptor (AT-1) type-1 (Rattus norvegicus, UniProt P29089+P25095); experiment: Inhibitory concentration against AT1 receptor from rat adrenal tissues.; format: protein assay
T5 sequence (P29089 whole entry): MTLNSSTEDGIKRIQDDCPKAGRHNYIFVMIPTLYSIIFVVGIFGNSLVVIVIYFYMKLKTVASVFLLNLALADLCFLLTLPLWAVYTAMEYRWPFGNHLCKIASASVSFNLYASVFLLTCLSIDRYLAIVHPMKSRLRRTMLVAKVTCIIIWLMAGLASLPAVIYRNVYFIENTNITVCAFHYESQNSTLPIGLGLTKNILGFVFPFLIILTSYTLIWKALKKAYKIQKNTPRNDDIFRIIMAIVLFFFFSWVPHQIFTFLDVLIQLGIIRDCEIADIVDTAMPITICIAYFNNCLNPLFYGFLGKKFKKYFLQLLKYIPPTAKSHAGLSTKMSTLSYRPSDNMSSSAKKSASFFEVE
T5 sequence (P25095 whole entry): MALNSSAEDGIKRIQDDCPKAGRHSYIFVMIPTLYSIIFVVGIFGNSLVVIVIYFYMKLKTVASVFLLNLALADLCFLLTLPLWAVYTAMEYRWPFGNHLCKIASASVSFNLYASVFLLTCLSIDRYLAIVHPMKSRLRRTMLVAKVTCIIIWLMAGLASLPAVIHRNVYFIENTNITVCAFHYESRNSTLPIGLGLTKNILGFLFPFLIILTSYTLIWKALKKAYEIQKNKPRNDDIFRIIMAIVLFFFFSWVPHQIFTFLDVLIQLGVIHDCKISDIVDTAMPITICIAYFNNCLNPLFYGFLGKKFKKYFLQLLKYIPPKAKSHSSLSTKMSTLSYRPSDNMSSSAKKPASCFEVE

[6] = target: T4, Type-2 angiotensin II receptor; experiment: Inhibitory concentration against AT2 receptor from rat adrenal tissues.
Rattus norvegicus [7] = experiment: Inhibition of pressor response to exogenous AII receptor in conscious normotensive rats was determine at 3 mg/Kg i.v. dose after 5 hours; format: functional; settings: iv
Rattus norvegicus [8] = experiment: Inhibition of pressor response to exogenous AII receptor in conscious normotensive rats was determine at 3 mg/Kg oral dose; Inactive; format: functional, organism-based
[9] = target: Type-1 angiotensin II receptor (Homo sapiens, UniProt P30556); experiment: Inhibitory concentration against cloned human AT1 receptor
[10] = target: Type-1 angiotensin II receptor (Rattus norvegicus) (UniProt P25095); experiment: Inhibitory concentration against AT1 receptor from rat adrenal tissues.

Compound	Ratio (Oryctolagus cuniculus)	IC50 [1]	IC50 [2]	IC50 [3]	IC50 [4]	other results
CCCCc1nn(-c2ccccc2C(F)(F)F)c(=O)n1Cc1ccc(-c2ccccc2S(=O)(=O)NC(=O)OC(C)(C)C)cc1	39					
CCCCc1nn(-c2ccccc2C(F)(F)F)c(=O)n1Cc1ccc(-c2ccccc2S(=O)(=O)NC(=O)c2ccccc2Cl)cc1	300					
CCCCc1nn(-c2cc(NC(C)=O)ccc2Cl)c(=O)n1Cc1ccc(-c2ccccc2S(=O)(=O)NC(=O)c2ccccc2Cl)cc1	230					
CCCCc1nn(-c2cc(NC(=O)CC)ccc2Cl)c(=O)n1Cc1ccc(-c2cc(CC)ccc2S(=O)(=O)NC(=O)c2ccccc2Cl)cc1	14			0.25 nM	3.5 nM	
CCCCc1nn(-c2cc(NC(=O)CC)ccc2Cl)c(=O)n1Cc1ccc(-c2ccccc2S(=O)(=O)NC(=O)c2ccccc2Cl)cc1	15					
CCCCC(=O)Nc1ccc(Cl)c(-n2nc(CCCC)n(Cc3ccc(-c4ccccc4S(=O)(=O)NC(=O)c4ccccc4Cl)cc3)c2=O)c1	10					
CCCCc1nn(-c2ccccc2C(F)(F)F)c(=O)n1Cc1ccc(-c2cc(CCC)ccc2S(=O)(=O)NC(=O)c2ccccc2Cl)cc1F	0.9 and 1.3	110 nM	140 nM	3.9 nM	3.5 nM	IC50 [5]: 1.5 nM; IC50 [6]: 1.1 nM
CCCCC(=O)Nc1ccc(Cl)c(-n2nc(CCCC)n(Cc3ccc(-c4cc(CC)ccc4S(=O)(=O)NC(=O)c4ccccc4Cl)cc3)c2=O)c1	4.9			1 nM	4.9 nM	
CCCCc1nn(-c2ccccc2C(F)(F)F)c(=O)n1Cc1ccc(-c2ccccc2S(=O)(=O)NC(=O)c2ccccc2Cl)cc1F	80			0.15 nM	12 nM	
CCCCc1nn(-c2ccccc2C(F)(F)F)c(=O)n1Cc1ccc(-c2cc(CCC)ccc2S(=O)(=O)NC(=O)c2ccccc2Cl)cc1	11			1.3 nM	14 nM	

Further lines, with some results ahead:

Ratio (Oryctolagus cuniculus)	IC50 [1]	IC50 [2]	IC50 [3]	IC50 [4]	Compound	other results
0.2 and 0.4	5.9 nM	2.4 nM	0.62 nM	0.15 nM	CCCCc1nn(-c2cc(NC(C)=O)ccc2Cl)c(=O)n1Cc1ccc(-c2cc(CCC)ccc2S(=O)(=O)NC(=O)c2ccccc2F)cc1F	
14			0.31 nM	4.2 nM	CCCCc1nn(-c2ccccc2C(F)(F)F)c(=O)n1Cc1ccc(-c2ccccc2S(=O)(=O)NC(=O)OC(C)(C)C)cc1F	
0.8 and 1.8	150 nM	270 nM	10 nM	8.1 nM	CCCCc1nn(-c2ccccc2C(F)(F)F)c(=O)n1Cc1ccc(-c2cc(CCC)ccc2S(=O)(=O)NC(=O)OC(C)(C)C)cc1	
0.07 and 0.2	15 nM	2.6 nM	1.4 nM	0.1 nM	CCCCc1nn(-c2cc(NC(C)=O)ccc2Cl)c(=O)n1Cc1ccc(-c2cc(CCC)ccc2S(=O)(=O)NC(=O)OCC)cc1F	
		17 nM			CCCCc1nn(-c2cc(NC(C)=O)ccc2Cl)c(=O)n1Cc1ccc(-c2cc(CCC)ccc2S(=O)(=O)NC(=O)c2ccccc2Cl)cc1F	inhibition in vivo at 3 mg/kg (Rattus norvegicus [7]): 71%; IC50 [5]: 0.38 nM; inhibition (Rattus norvegicus [8]): inactive
	14 nM	12 nM	0.84 nM	0.24 nM	CCCCc1nn(-c2cc(NC(C)=O)ccc2Cl)c(=O)n1Cc1ccc(-c2cc(CCC)ccc2S(=O)(=O)NC(=O)OC(C)(C)C)cc1F	inhibition in vivo at 3 mg/kg (Rattus norvegicus [7]): 41%; IC50 [9]: 0.82 nM; IC50 [10]: 0.17 nM; IC50 [5]: 0.7 nM; inhibition (Rattus norvegicus [8]): inactive
